test system: test plant species; experiment: Post-emergent herbicidal activity test (greenhouse, foliar spray, visual growth reduction); format: in vivo; settings: post-emergence, 336 h, ALOMY: blackgrass (Alopecurus myosuroides), 140 g ai/ha, 14 days after application, read-out: Visual Growth Reduction (%) 14 Days After Application, ALOMY
In short: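 Visual scoring 14 d after treatment (0 = no injury, 100 = complete control) against nontreated and solvent-blank plants gave percent growth reduction. Foliar application used a track sprayer delivering 187 L/ha to seedlings at first or second true leaf stage, grown at 23–29 °C day, ~15 h photoperiod.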

SMILES	pest or weed control at 140 g/ha
COC(=O)c1nc(-c2ccc(SC(F)(F)F)cc2Cl)ccc1Cl [F90, Methyl 3-chloro-6-(2-chloro-4-((trifluoromethyl)thio)phenyl) picolinate]	0 to 29%
COC(=O)c1nc(-c2ccc(SC(F)(F)F)cc2Cl)c(Cl)cc1Cl [F130, Methyl 3,5-dichloro-6-(2-chloro-4-((trifluoromethyl)thio)phenyl) picolinate]	0 to 29%

same assay, conditions: post-emergence, 336 h, AMARE: redroot pigweed (Amaranthus retroflexus), 140 g ai/ha, 14 days after application, read-out: Visual Growth Reduction (%) 14 Days After Application, AMARE

SMILES	pest or weed control at 140 g/ha
COC(=O)c1nc(-c2ccc(SC(F)(F)F)cc2Cl)ccc1Cl [F90, Methyl 3-chloro-6-(2-chloro-4-((trifluoromethyl)thio)phenyl) picolinate]	75 to 84%
COC(=O)c1nc(-c2ccc(SC(F)(F)F)cc2Cl)c(Cl)cc1Cl [F130, Methyl 3,5-dichloro-6-(2-chloro-4-((trifluoromethyl)thio)phenyl) picolinate]	85 to 94%

same assay, conditions: post-emergence, 336 h, AVEFA: wild oat (Avena fatua), 140 g ai/ha, 14 days after application, read-out: Visual Growth Reduction (%) 14 Days After Application, AVEFA

SMILES	pest or weed control at 140 g/ha
COC(=O)c1nc(-c2ccc(SC(F)(F)F)cc2Cl)ccc1Cl [F90, Methyl 3-chloro-6-(2-chloro-4-((trifluoromethyl)thio)phenyl) picolinate]	0 to 29%
COC(=O)c1nc(-c2ccc(SC(F)(F)F)cc2Cl)c(Cl)cc1Cl [F130, Methyl 3,5-dichloro-6-(2-chloro-4-((trifluoromethyl)thio)phenyl) picolinate]	0 to 29%

same assay, conditions: post-emergence, 336 h, CHEAL: lambsquarters (Chenopodium album), 140 g ai/ha, 14 days after application, read-out: Visual Growth Reduction (%) 14 Days After Application, CHEAL

SMILES	pest or weed control at 140 g/ha
COC(=O)c1nc(-c2ccc(SC(F)(F)F)cc2Cl)ccc1Cl [F90, Methyl 3-chloro-6-(2-chloro-4-((trifluoromethyl)thio)phenyl) picolinate]	75 to 84%
COC(=O)c1nc(-c2ccc(SC(F)(F)F)cc2Cl)c(Cl)cc1Cl [F130, Methyl 3,5-dichloro-6-(2-chloro-4-((trifluoromethyl)thio)phenyl) picolinate]	75 to 84%

same assay, conditions: post-emergence, 336 h, CIRAR: canada thistle (Cirsium arvense), 140 g ai/ha, 14 days after application, read-out: Visual Growth Reduction (%) 14 Days After Application, CIRAR

SMILES	pest or weed control at 140 g/ha
COC(=O)c1nc(-c2ccc(SC(F)(F)F)cc2Cl)ccc1Cl [F90, Methyl 3-chloro-6-(2-chloro-4-((trifluoromethyl)thio)phenyl) picolinate]	85 to 94%
COC(=O)c1nc(-c2ccc(SC(F)(F)F)cc2Cl)c(Cl)cc1Cl [F130, Methyl 3,5-dichloro-6-(2-chloro-4-((trifluoromethyl)thio)phenyl) picolinate]	75 to 84%

same assay, conditions: post-emergence, 336 h, CYPES: yellow nutsedge (Cyperus esculentus), 140 g ai/ha, 14 days after application, read-out: Visual Growth Reduction (%) 14 Days After Application, CYPES

SMILES	pest or weed control at 140 g/ha
COC(=O)c1nc(-c2ccc(SC(F)(F)F)cc2Cl)ccc1Cl [F90, Methyl 3-chloro-6-(2-chloro-4-((trifluoromethyl)thio)phenyl) picolinate]	0 to 29%
COC(=O)c1nc(-c2ccc(SC(F)(F)F)cc2Cl)c(Cl)cc1Cl [F130, Methyl 3,5-dichloro-6-(2-chloro-4-((trifluoromethyl)thio)phenyl) picolinate]	0 to 29%

same assay, conditions: post-emergence, 336 h, DIGSA: crabgrass (Digitaria sanguinalis), 140 g ai/ha, 14 days after application, read-out: Visual Growth Reduction (%) 14 Days After Application, DIGSA

SMILES	pest or weed control at 140 g/ha
COC(=O)c1nc(-c2ccc(SC(F)(F)F)cc2Cl)ccc1Cl [F90, Methyl 3-chloro-6-(2-chloro-4-((trifluoromethyl)thio)phenyl) picolinate]	60 to 74%
COC(=O)c1nc(-c2ccc(SC(F)(F)F)cc2Cl)c(Cl)cc1Cl [F130, Methyl 3,5-dichloro-6-(2-chloro-4-((trifluoromethyl)thio)phenyl) picolinate]	60 to 74%

same assay, conditions: post-emergence, 336 h, ECHCG: barnyardgrass (Echinochloa crus-galli), 140 g ai/ha, 14 days after application, read-out: Visual Growth Reduction (%) 14 Days After Application, ECHCG

SMILES	pest or weed control at 140 g/ha
COC(=O)c1nc(-c2ccc(SC(F)(F)F)cc2Cl)ccc1Cl [F90, Methyl 3-chloro-6-(2-chloro-4-((trifluoromethyl)thio)phenyl) picolinate]	0 to 29%
COC(=O)c1nc(-c2ccc(SC(F)(F)F)cc2Cl)c(Cl)cc1Cl [F130, Methyl 3,5-dichloro-6-(2-chloro-4-((trifluoromethyl)thio)phenyl) picolinate]	0 to 29%

same assay, conditions: post-emergence, 336 h, IPOHE: ivy-leaf morning glory (Ipomoea hederacea), 140 g ai/ha, 14 days after application, read-out: Visual Growth Reduction (%) 14 Days After Application, IPOHE

SMILES	pest or weed control at 140 g/ha
COC(=O)c1nc(-c2ccc(SC(F)(F)F)cc2Cl)ccc1Cl [F90, Methyl 3-chloro-6-(2-chloro-4-((trifluoromethyl)thio)phenyl) picolinate]	75 to 84%
COC(=O)c1nc(-c2ccc(SC(F)(F)F)cc2Cl)c(Cl)cc1Cl [F130, Methyl 3,5-dichloro-6-(2-chloro-4-((trifluoromethyl)thio)phenyl) picolinate]	30 to 44%

same assay, conditions: post-emergence, 336 h, KCHSC: kochia (Bassia scoparia), 140 g ai/ha, 14 days after application, read-out: Visual Growth Reduction (%) 14 Days After Application, KCHSC

SMILES	pest or weed control at 140 g/ha
COC(=O)c1nc(-c2ccc(SC(F)(F)F)cc2Cl)ccc1Cl [F90, Methyl 3-chloro-6-(2-chloro-4-((trifluoromethyl)thio)phenyl) picolinate]	30 to 44%
COC(=O)c1nc(-c2ccc(SC(F)(F)F)cc2Cl)c(Cl)cc1Cl [F130, Methyl 3,5-dichloro-6-(2-chloro-4-((trifluoromethyl)thio)phenyl) picolinate]	60 to 74%

same assay, conditions: post-emergence, 336 h, ORYSA: rice (Oryza sativa), 140 g ai/ha, 14 days after application, read-out: Visual Growth Reduction (%) 14 Days After Application, ORYSA

SMILES	pest or weed control at 140 g/ha
COC(=O)c1nc(-c2ccc(SC(F)(F)F)cc2Cl)ccc1Cl [F90, Methyl 3-chloro-6-(2-chloro-4-((trifluoromethyl)thio)phenyl) picolinate]	0 to 29%
COC(=O)c1nc(-c2ccc(SC(F)(F)F)cc2Cl)c(Cl)cc1Cl [F130, Methyl 3,5-dichloro-6-(2-chloro-4-((trifluoromethyl)thio)phenyl) picolinate]	0 to 29%

same assay, conditions: post-emergence, 336 h, SETFA: giant foxtail (Setaria faberi), 140 g ai/ha, 14 days after application, read-out: Visual Growth Reduction (%) 14 Days After Application, SETFA

SMILES	pest or weed control at 140 g/ha
COC(=O)c1nc(-c2ccc(SC(F)(F)F)cc2Cl)ccc1Cl [F90, Methyl 3-chloro-6-(2-chloro-4-((trifluoromethyl)thio)phenyl) picolinate]	45 to 59%
COC(=O)c1nc(-c2ccc(SC(F)(F)F)cc2Cl)c(Cl)cc1Cl [F130, Methyl 3,5-dichloro-6-(2-chloro-4-((trifluoromethyl)thio)phenyl) picolinate]	60 to 74%

same assay, conditions: post-emergence, 336 h, SORVU: grain sorghum (Sorghum vulgare), 140 g ai/ha, 14 days after application, read-out: Visual Growth Reduction (%) 14 Days After Application, SORVU

SMILES	pest or weed control at 140 g/ha
COC(=O)c1nc(-c2ccc(SC(F)(F)F)cc2Cl)ccc1Cl [F90, Methyl 3-chloro-6-(2-chloro-4-((trifluoromethyl)thio)phenyl) picolinate]	60 to 74%
COC(=O)c1nc(-c2ccc(SC(F)(F)F)cc2Cl)c(Cl)cc1Cl [F130, Methyl 3,5-dichloro-6-(2-chloro-4-((trifluoromethyl)thio)phenyl) picolinate]	30 to 44%

same assay, conditions: post-emergence, 336 h, STEME: common chickweed (Stellaria media), 140 g ai/ha, 14 days after application, read-out: Visual Growth Reduction (%) 14 Days After Application, STEME

SMILES	pest or weed control at 140 g/ha
COC(=O)c1nc(-c2ccc(SC(F)(F)F)cc2Cl)ccc1Cl [F90, Methyl 3-chloro-6-(2-chloro-4-((trifluoromethyl)thio)phenyl) picolinate]	0 to 29%
COC(=O)c1nc(-c2ccc(SC(F)(F)F)cc2Cl)c(Cl)cc1Cl [F130, Methyl 3,5-dichloro-6-(2-chloro-4-((trifluoromethyl)thio)phenyl) picolinate]	0 to 29%

same assay, conditions: post-emergence, 336 h, TRZAS: wheat, spring (Triticum aestivum), 140 g ai/ha, 14 days after application, read-out: Visual Growth Reduction (%) 14 Days After Application, TRZAS

SMILES	pest or weed control at 140 g/ha
COC(=O)c1nc(-c2ccc(SC(F)(F)F)cc2Cl)ccc1Cl [F90, Methyl 3-chloro-6-(2-chloro-4-((trifluoromethyl)thio)phenyl) picolinate]	0 to 29%
COC(=O)c1nc(-c2ccc(SC(F)(F)F)cc2Cl)c(Cl)cc1Cl [F130, Methyl 3,5-dichloro-6-(2-chloro-4-((trifluoromethyl)thio)phenyl) picolinate]	0 to 29%

From patent US20230017045A1, “PYRIDINE AND PYRIMIDINE CARBOXYLATE HERBICIDES AND METHODS OF USE THEREOF” (Dow AgroSciences LLC, priority 2017, published 2023)
